These results are taken from patent publication US12497428B2, “Galactoside inhibitor of galectins” (GALECTO BIOTECH AB, priority 2018, dated 2025).

For experiment [1], the target named is Galectin-3 (Homo sapiens, UniProt P17931). Kind of experiment: Fluorescence anisotropy assay, inhibition of galectin / fluorescein tagged saccharide probe interaction. The format is binding. As to the method: (§1) The affinity of Example 1-28 for galectins were determined by a fluorescence anisotropy assay where the compound was used as an inhibitor of the interaction between galectin and a fluorescein tagged saccharide probe as described Sörme, P., Kahl-Knutsson, B., Huflejt, M., Nilsson, U. J., and Leffler H. (2004) Fluorescence polarization as an analytical tool to evaluate galectin-ligand interactions. Anal. Biochem. 334: 36-47, (Sörme et al., 2004) and Monovalent interactions of Galectin-1 By Salomonsson, Emma; Larumbe, Amaia; Tejler, Johan; Tullberg, Erik; Rydberg, Hanna; Sundin, Anders; Khabut, Areej; Frejd, Torbjorn; Lobsanov, Yuri D.; Rini, James M.; et al, From Biochemistry (2010), 49(44), 9518-9532, (Salomonsson et al., 2010).

Experiment [2] has as its target Galectin-1 (Homo sapiens, UniProt P09382). The description is as above. The class given is binding. As to the method:
as §1

Chain of Galectin-3 (P17931 whole entry): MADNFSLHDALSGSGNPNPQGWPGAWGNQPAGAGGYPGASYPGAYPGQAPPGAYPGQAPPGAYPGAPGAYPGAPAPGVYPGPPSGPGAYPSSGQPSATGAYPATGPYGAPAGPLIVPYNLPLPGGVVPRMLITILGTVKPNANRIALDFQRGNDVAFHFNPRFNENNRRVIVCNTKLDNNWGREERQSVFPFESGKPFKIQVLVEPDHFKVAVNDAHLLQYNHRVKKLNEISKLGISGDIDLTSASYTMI
Chain of Galectin-1 (P09382 whole entry): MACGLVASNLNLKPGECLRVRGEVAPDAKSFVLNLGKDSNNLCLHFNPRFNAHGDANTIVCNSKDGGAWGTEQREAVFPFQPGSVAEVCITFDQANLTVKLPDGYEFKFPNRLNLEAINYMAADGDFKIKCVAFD

For `CC(OC1C(n2cc(-c3cc(F)c(F)c(F)c3)nn2)[C@@H](O)C(CO)O[C@@H]1Sc1cncc(Br)c1)C(=O)O` (single isomer, unassigned; diastereomer 1) [Example 27], the Kd turned out to be 15 nM in experiment [1] and 6500 nM in experiment [2].
For `CC(OC1C(n2cc(-c3cc(F)c(F)c(F)c3)nn2)[C@@H](O)C(CO)O[C@@H]1Sc1cncc(Br)c1)C(=O)O` (single isomer, unassigned; diastereomer 2) [Example 28] the same measures were 6 nM and 6400 nM.
For `OCC1O[C@H](Sc2ccc(Cl)c(Cl)c2)C(OCc2nnn[nH]2)C(n2cc(-c3cc(F)c(Cl)c(F)c3)nn2)[C@H]1O` (stereo in doubt) [Example 13, 3,4-Dichlorphenyl 3-[4-(4-chloro-3,5-difluorophenyl)-1H-1,2,3-triazol-1-yl]-3-deoxy-2-O-[(1H-tetrazol-5-yl)methyl]-1-thio-α-D-galactopyranoside], in that order: 64 nM and 1400 nM.
For `OCC1O[C@H](Sc2ccc(Cl)c(Cl)c2)C(OCc2nnn[nH]2)C(n2cc(-c3cc(F)c(F)c(F)c3)nn2)[C@H]1O` (stereo in doubt) [Example 14, 3,4-Dichlorphenyl 3-deoxy-3-[4-(3,4,5-trifluorophenyl)-1H-1,2,3-triazol-1-yl]-2-O-[(1H-tetrazol-5-yl)methyl]-1-thio-α-D-galactopyranoside], in that order: 8 nM and 1800 nM.
Take `O=P(O)(O)O[C@@H]1[C@@H](n2cc(-c3cc(F)c(F)c(F)c3)nn2)[C@@H](O)[C@@H](CO)O[C@@H]1Sc1cncc(Br)c1` [Example 1, 5-Bromopyridin-3-yl 3-deoxy-3-[4-(3,4,5-trifluorophenyl)-1H-1,2,3-triazol-1-yl]-2-O-phospho-1-thio-α-D-galactopyranoside]: in experiment [2], binding was put at a Kd of 5400 nM.
Take `O=S(=O)(O)O[C@@H]1[C@@H](n2cc(-c3cc(F)c(F)c(F)c3)nn2)[C@@H](O)[C@@H](CO)O[C@@H]1Sc1cncc(Br)c1` [Example 4, 5-Bromopyridin-3-yl 3-deoxy-3-[4-(3,4,5-trifluorophenyl)-1H-1,2,3-triazol-1-yl]-2-O-sulfo-1-thio-α-D-galactopyranside]: the Kd amounted to 3 nM in experiment [1] and 3150 nM in experiment [2].
In turn, `O=C(O)CO[C@@H]1[C@@H](n2cc(-c3cc(F)c(F)c(F)c3)nn2)[C@@H](O)[C@@H](CO)O[C@@H]1Sc1ccc(Cl)c(Cl)c1` [Example 6, 3,4-Dichlorphenyl 2-O-carboxymethyl-3-deoxy-3-[4-(3,4,5-trifluorophenyl)-1H-1,2,3-triazol-1-yl]-1-thio-α-D-galactopyranoside] came in with a Kd in experiment [1] of 17 nM.
With `OC[C@H]1O[C@H](Sc2cncc(Br)c2)[C@H](OCc2cocn2)[C@@H](n2cc(-c3cc(F)c(F)c(F)c3)nn2)[C@H]1O` [Example 10, 5-Bromopyridin-3-yl 3-deoxy-3-[4-(3,4,5-trifluorophenyl)-1H-1,2,3-triazol-1-yl]-2-O-(oxazol-4-ylmethyl)-1-thio-α-D-galactopyranoside], the Kd came to 24 nM in experiment [1] and 9200 nM in experiment [2].
For `OC[C@H]1O[C@H](Sc2cncc(Br)c2)[C@H](OCc2cc(F)c(O)c(F)c2)[C@@H](n2cc(-c3cc(F)c(F)c(F)c3)nn2)[C@H]1O` [Example 11, 5-Bromopyridin-3-yl 3-deoxy-3-[4-(3,4,5-trifluorophenyl)-1H-1,2,3-triazol-1-yl]-2-O-(3,5-difluoro-4-hydroxybenzyl)-1-thio-α-D-galactopyranoside] the same measures were 17 nM and 260 nM.
For `OC[C@H]1O[C@H](Sc2cncc(Br)c2)[C@H](OCc2nnn[nH]2)[C@@H](n2cc(-c3cc(F)c(F)c(F)c3)nn2)[C@H]1O` [Example 12, 5-Bromopyridin-3-yl 3-deoxy-3-[4-(3,4,5-trifluorophenyl)-1H-1,2,3-triazol-1-yl]-2-O-[(1H-tetrazol-5-yl)methyl]-1-thio-α-D-galactopyranoside] the same measures were 16 nM and 2400 nM.
For `OC[C@H]1O[C@H](Sc2cncc(Br)c2)[C@H](OCc2ncc[nH]2)[C@@H](n2cc(-c3cc(F)c(F)c(F)c3)nn2)[C@H]1O` [Example 15, 5-Bromopyridin-3-yl 3-deoxy-3-[4-(3,4,5-trifluorophenyl)-1H-1,2,3-triazol-1-yl]-2-O-[(1H-imidazol-2-yl)methyl]-1-thio-α-D-galactopyranoside] the same measures were 7 nM and 9500 nM.
`Cn1ccnc1CO[C@@H]1[C@@H](n2cc(-c3cc(F)c(F)c(F)c3)nn2)[C@@H](O)[C@@H](CO)O[C@@H]1Sc1cncc(Br)c1` [Example 16, 5-Bromopyridin-3-yl 3-deoxy-3-[4-(3,4,5-trifluorophenyl)-1H-1,2,3-triazol-1-yl]-2-O-[(1-methyl-1H-imidazol-2-yl)methyl]-1-thio-α-D-galactopyranoside]: the Kd was 57 nM in experiment [1] and 6400 nM in experiment [2].
As to `OC[C@H]1O[C@H](Sc2cncc(Br)c2)[C@H](OCc2ncco2)[C@@H](n2cc(-c3cc(F)c(F)c(F)c3)nn2)[C@H]1O` [Example 17, 5-Bromopyridin-3-yl 3-deoxy-3-[4-(3,4,5-trifluorophenyl)-1H-1,2,3-triazol-1-yl]-2-O-[(oxazol-2-yl)methyl]-1-thio-α-D-galactopyranoside], the Kd in experiment [1] was found to be 24 nM; in experiment [2] it was 2800 nM.
As for `OC[C@H]1O[C@H](Sc2cncc(Br)c2)[C@H](OCc2cnco2)[C@@H](n2cc(-c3cc(F)c(F)c(F)c3)nn2)[C@H]1O` [Example 18, 5-Bromopyridin-3-yl 3-deoxy-3-[4-(3,4,5-trifluorophenyl)-1H-1,2,3-triazol-1-yl]-2-O-[(oxazol-5-yl)methyl]-1-thio-α-D-galactopyranoside], the values for the Kd in experiment [1] and in experiment [2] were 130 nM and 14800 nM, respectively.
For `OC[C@H]1O[C@H](Sc2cncc(Br)c2)[C@H](OCc2ccon2)[C@@H](n2cc(-c3cc(F)c(F)c(F)c3)nn2)[C@H]1O` [Example 19, 5-Bromopyridin-3-yl 3-deoxy-3-[4-(3,4,5-trifluorophenyl)-1H-1,2,3-triazol-1-yl]-2-O-[(isoxazol-3-yl)methyl]-1-thio-α-D-galactopyranoside], in that order: 32 nM and 2900 nM.
On to `OCC1O[C@H](Sc2ccc(Cl)c(Cl)c2)C(OCc2cocn2)C(n2cc(-c3cc(F)c(Cl)c(F)c3)nn2)[C@H]1O` (stereo partly drawn) [Example 20, 3,4-Dichlorphenyl 3-[4-(4-chloro-3,5-difluorophenyl)-1H-1,2,3-triazol-1-yl]-3-deoxy-2-O-[(oxazol-4-yl)methyl]-1-thio-α-D-galactopyranoside], for which the Kd in experiment [1] is 87 nM; in experiment [2] it was 29700 nM.
For `OC[C@H]1O[C@H](Sc2cncc(Br)c2)[C@H](OCc2cscn2)[C@@H](n2cc(-c3cc(F)c(F)c(F)c3)nn2)[C@H]1O` [Example 21, 5-Bromopyridin-3-yl 3-deoxy-3-[4-(3,4,5-trifluorophenyl)-1H-1,2,3-triazol-1-yl]-2-O-[(thiazol-4-yl)methyl]-1-thio-α-D-galactopyranoside], in that order: 18 nM and 8600 nM.
For `OC[C@H]1O[C@H](Sc2cncc(Br)c2)[C@H](OCc2cncs2)[C@@H](n2cc(-c3cc(F)c(F)c(F)c3)nn2)[C@H]1O` [Example 22, 5-Bromopyridin-3-yl 3-deoxy-3-[4-(3,4,5-trifluorophenyl)-1H-1,2,3-triazol-1-yl]-2-O-[(thiazol-5-yl)methyl]-1-thio-α-D-galactopyranoside], in that order: 21 nM and 1900 nM.
For `OC[C@H]1O[C@H](Sc2cncc(Br)c2)[C@H](OCc2nccs2)[C@@H](n2cc(-c3cc(F)c(F)c(F)c3)nn2)[C@H]1O` [Example 23, 5-Bromopyridin-3-yl 3-deoxy-3-[4-(3,4,5-trifluorophenyl)-1H-1,2,3-triazol-1-yl]-2-O-[(thiazol-2-yl)methyl]-1-thio-α-D-galactopyranoside] the same measures were 41 nM and 2600 nM.
For `CN(C)C(=O)c1ccc(Cl)cc1S[C@H]1OC(CO)[C@H](O)C(n2cc(-c3cc(F)c(F)c(F)c3)nn2)C1OCc1cscn1` (stereo partly drawn) [Example 24, 4-Chloro-N,N-dimethyl-benzamide-2-yl 3-deoxy-3-[4-(3,4,5-trifluorophenyl)-1H-1,2,3-triazol-1-yl]-2-O-[(thiazol-4-yl)methyl]-1-thio-α-D-galactopyranoside], the Kd in experiment [1] amounted to 14 nM; in experiment [2], 3700 nM.
Take `CN(C)C(=O)c1ccc(Cl)cc1S[C@H]1OC(CO)[C@H](O)C(n2cc(-c3cc(F)c(F)c(F)c3)nn2)C1OCc1nnn[nH]1` (stereo partly drawn) [Example 25, 4-Chloro-N,N-dimethyl-benzamide-2-yl 3-deoxy-3-[4-(3,4,5-trifluorophenyl)-1H-1,2,3-triazol-1-yl]-2-O-[(1H-tetrazol-5-yl)methyl]-1-thio-α-D-galactopyranoside]: the results for the Kd in experiment [1] and in experiment [2] were 4 nM and 1200 nM, respectively.
Take `O=C(O)CCCO[C@@H]1[C@@H](n2cc(-c3cc(F)c(F)c(F)c3)nn2)[C@@H](O)[C@@H](CO)O[C@@H]1Sc1cncc(Br)c1` [Example 26, 5-Bromopyridin-3-yl 2-O-carboxypropyl-3-deoxy-3-[4-(3,4,5-trifluorophenyl)-1H-1,2,3-triazol-1-yl]-1-thio-α-D-galactopyranoside]: the results for the Kd in experiment [1] and in experiment [2] were 10 nM and 1500 nM, respectively.
